Measured values published in ChEMBL document CHEMBL5537113, “Discovery of 1,2-diaryl-3-oxopyrazolidin-4-carboxamides as a new class of MurA enzyme inhibitors and characterization of their antibacterial activity” (Eur J Med Chem, 2023).

How the values were obtained:
Clostridioides difficile [1] = experiment: Antibacterial activity against Clostridioides difficile NR-32904 assessed as reduction in microbial growth incubated for 48 hrs by broth microdilution method; assay type: functional
Clostridioides difficile [2] = experiment: Bactericidal activity against Clostridioides difficile NR-49284 assessed as reduction in microbial growth by broth microdilution method; assay type: functional
[3] = biological target: UDP-N-acetylglucosamine 1-carboxyvinyltransferase (Escherichia coli K-12, UniProt P0A749); experiment: Inhibition of Escherichia coli K12 His-tagged MurA expressed in Escherichia coli BL21 cells using UNAG as substrate pre incubated for 15 mins followed by substrate addition and measured after 15 mins by microplate reader analysis
Chain of UDP-N-acetylglucosamine 1-carboxyvinyltransferase (Escherichia coli K-12, UniProt P0A749) (P0A749 whole entry): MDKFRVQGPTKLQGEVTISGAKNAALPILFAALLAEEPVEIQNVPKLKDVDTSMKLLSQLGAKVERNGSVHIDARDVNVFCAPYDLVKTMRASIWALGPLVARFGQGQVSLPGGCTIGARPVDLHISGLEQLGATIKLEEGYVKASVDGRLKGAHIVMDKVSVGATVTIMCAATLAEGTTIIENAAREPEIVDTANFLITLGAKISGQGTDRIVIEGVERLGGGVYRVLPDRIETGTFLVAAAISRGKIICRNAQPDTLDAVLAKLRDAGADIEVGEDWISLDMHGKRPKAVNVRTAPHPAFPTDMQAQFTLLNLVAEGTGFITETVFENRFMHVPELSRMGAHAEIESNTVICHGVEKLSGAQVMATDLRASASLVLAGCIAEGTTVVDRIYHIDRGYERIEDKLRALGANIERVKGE

Enterococcus faecalis = experiment: Antibacterial activity against Enterococcus faecalis ATCC 51299 assessed as reduction in microbial growth by CLSI based broth microdilution method; assay type: functional
[4] = test system: UDP-N-acetylglucosamine 1-carboxyvinyltransferase (Escherichia coli K-12), P0A749 [C115D]; experiment: Inhibition of Escherichia coli MurA C115D mutant using UNAG as substrate pre incubated for 15 mins followed by substrate addition and measured after 15 mins by microplate reader analysis; conditions: time 30.0 min
Chain of UDP-N-acetylglucosamine 1-carboxyvinyltransferase (Escherichia coli K-12), P0A749 [C115D] (P0A749 whole entry C115D): as the sequence (P0A749 whole entry) above, with C115D counted along it

Clostridioides difficile [5] = experiment: Antibacterial activity against Clostridioides difficile NR-13436 assessed as reduction in microbial growth incubated for 48 hrs by broth microdilution method; assay type: functional
Clostridioides difficile [6] = experiment: Antibacterial activity against Clostridioides difficile NR-49278 assessed as reduction in microbial growth incubated for 48 hrs by broth microdilution method; assay type: functional
[7] = Drug uptake in Escherichia coli harboring tolC deletion mutant at 10 uM incubated for 30 mins by LC analysis; assay type: ADME; conditions: 0.5 h
Clostridioides difficile [8] = experiment: Selectivity ratio of MBC for antibacterial activity against Clostridioides difficile NR-32904 to MIC for antibacterial activity against Clostridioides difficile NR-32904; assay type: functional
Caco-2 [9] = experiment: Cytotoxicity against human Caco-2 cells assessed as reduction in cell viability at 64 ug/ml after 24 hrs by MTS assay; assay type: toxicity, cell-based; conditions: caco-2, 24 h, dose 64 µg/ml
Clostridioides difficile [10] = experiment: Antibacterial activity against Clostridioides difficile NR-49286 assessed as reduction in microbial growth incubated for 48 hrs by broth microdilution method; assay type: functional
Clostridioides difficile [11] = experiment: Antibacterial activity against Clostridioides difficile NR-32903 assessed as reduction in microbial growth incubated for 48 hrs by broth microdilution method; assay type: functional
Clostridioides difficile [12] = experiment: Bactericidal activity against Clostridioides difficile NR-49278 assessed as reduction in microbial growth by broth microdilution method; assay type: functional
Clostridioides difficile [13] = experiment: Selectivity ratio of MBC for antibacterial activity against Clostridioides difficile NR-49278 to MIC for antibacterial activity against Clostridioides difficile NR-49278; assay type: functional
[14] = Drug uptake in Escherichia coli harboring tolC deletion mutant assessed per 1.6x10^9 cells at 10 uM incubated for 30 mins by LC analysis; assay type: ADME; conditions: 0.5 h
Clostridioides difficile [15] = experiment: Selectivity ratio of MBC for antibacterial activity against Clostridioides difficile ATCC BAA1870 to MIC for antibacterial activity against Clostridioides difficile ATCC BAA1870; assay type: functional
[16] = biological target: UDP-N-acetylglucosamine 1-carboxyvinyltransferase (Escherichia coli K-12, UniProt P0A749, C115D); experiment: Inhibition of Escherichia coli MurA C115D mutant at 50 uM using UNAG as substrate pre incubated for 15 mins followed by substrate addition and measured after 15 mins by microplate reader analysis relative to control
Chain of UDP-N-acetylglucosamine 1-carboxyvinyltransferase (Escherichia coli K-12, UniProt P0A749, C115D) (P0A749 whole entry C115D): as the sequence (P0A749 whole entry) above, with C115D counted along it

Staphylococcus aureus = experiment: Antibacterial activity against vancomycin resistant Staphylococcus aureus 10 assessed as reduction in microbial growth by CLSI based broth microdilution method; assay type: functional
Caco-2 [17] = experiment: Cytotoxicity against human Caco-2 cells assessed as reduction in cell viability at > 128 ug/ml after 24 hrs by MTS assay; assay type: toxicity, cell-based; conditions: caco-2, 24 h, dose > 128 µg/ml

Row | SMILES | MIC (Clostridioides difficile [1]) | MBC (Clostridioides difficile [2]) | IC50 [3] | MIC (Enterococcus faecalis) | inhibition [4] | MIC (Clostridioides difficile [5]) | MIC (Clostridioides difficile [6]) | Drug uptake [7] | Ratio (Clostridioides difficile [8]) | Activity (Caco-2 [9]) | MIC (Clostridioides difficile [10]) | MIC (Clostridioides difficile [11]) | MBC (Clostridioides difficile [12]) | Ratio (Clostridioides difficile [13]) | Drug uptake [14] | Ratio (Clostridioides difficile [15]) | IC50 [16] | MIC (Staphylococcus aureus) | Activity (Caco-2 [17])
1 | O=C(Nc1ncc([N+](=O)[O-])s1)C1CN(c2cccc(Cl)c2)N(c2cccc(Cl)c2)C1=O (configuration not stated) | 0.5 µg/mL | 0.5 µg/mL | 9.8 µM | > 64 µg/mL | 76% | 0.5 µg/mL | 0.5 µg/mL | 56 nM | 1 | Non-Toxic | 0.5 µg/mL | 0.5 µg/mL | 0.5 µg/mL | 1 | 1.8 µM | 1 | 10.9 µM | 4 µg/mL | –
2 | O=C(Nc1ncc([N+](=O)[O-])s1)C1CN(c2ccc(Cl)cc2)N(c2ccc(Cl)cc2)C1=O (configuration not stated) | 0.5 µg/mL | 0.5 µg/mL | 10.2 µM | > 64 µg/mL | – | 1 µg/mL | 0.5 µg/mL | – | 1 | – | 0.5 µg/mL | 0.5 µg/mL | 0.5 µg/mL | 1 | – | 1 | – | > 64 µg/mL | Non-Toxic
